# Experimental data published in patent US20050265999A1, “Modulation of 5-HT2 receptors as a treatment for cardiovascular diseases” (Myogen, Inc., priority 2003, published 2005).
# Experiments:
# [1] = system: primary rat neonatal cardiomyocytes; experiment: Immunofluorescence / morphology of cardiomyocyte hypertrophy in NRVM; format: cell-based; conditions: 1 μM, 48 h
# Procedure: (§1) NRVM culture. For preparations of neonatal rat ventricular myocytes (NRVMs), hearts were removed from 10-20 newborn (1-2 days old) Sprague-Dawley rats. Isolated ventricles were pooled, minced and dispersed by three 20-min incubations at 37° C. in Ads buffer (116 mM NaCl, 20 mM HEPES, 10 mM NaH2PO4, 5.5 mM glucose, 5 mM KCl, 0.8 mM MgSO4, pH 7.4) containing collagenase Type II (65 units/ml, Worthington) and pancreatin (0.6 mg/ml, GibcoBRL). Dispersed cells were applied to a discontinuous gradient of 40.5% and 58.5% (v/v) Percoll (Amersham Biosciences), centrifuged, and myocytes collected from the interface layer. Myocyte preparations were pre-plated in Dulbecco's modified Eagle's medium (DMEM, Cellgro), supplemented with 10% (v/v) fetal bovine serum (FBS, HyClone), 4 mM L-glutamine and 1% penicillin/streptomycin for 1 hour at 37° C. to reduce fibroblast contamination, then plated at a density of 2.5×10^5 cells per well on 6-well tissue culture plates (or 10,000 cells/well on 96-well tissue culture plates) coated with a 0.2% (w/v) gelatin solution. After 24 hours in culture, myocyte preparations were transferred to serum-free maintenance medium (DMEM supplemented with 0.1% (v/v) Nutridoma (Roche), L-glutamine and penicillin/streptomycin). Where indicated, NRVM were treated with test compounds for a period of 48 h. […]
# 5-HT2C = biological target: T1, 5-HT2C (Homo sapiens, UniProt P28335); experiment: Radioligand receptor binding assay; conditions: 10 μM compound, n=2
# T1 sequence (P28335 33-458): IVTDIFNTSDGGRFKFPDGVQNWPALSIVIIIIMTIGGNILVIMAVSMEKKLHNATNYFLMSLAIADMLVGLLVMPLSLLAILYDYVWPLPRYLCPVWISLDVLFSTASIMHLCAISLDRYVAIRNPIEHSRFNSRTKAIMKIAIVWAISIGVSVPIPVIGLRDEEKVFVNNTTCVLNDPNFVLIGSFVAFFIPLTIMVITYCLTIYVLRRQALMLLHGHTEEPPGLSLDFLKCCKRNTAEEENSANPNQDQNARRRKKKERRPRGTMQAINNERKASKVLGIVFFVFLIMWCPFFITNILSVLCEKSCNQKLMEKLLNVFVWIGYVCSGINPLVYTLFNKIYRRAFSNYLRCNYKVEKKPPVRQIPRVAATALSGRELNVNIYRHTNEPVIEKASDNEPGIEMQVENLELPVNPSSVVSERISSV
# beta myosin heavy chain = experiment: Beta myosin heavy chain protein quantitation by cytoblot in NRVM; format: cell-based, rat; conditions: 1 μM, 48 h
# Procedure: Beta myosin heavy chain protein quantitation by cytoblot. NRVM were plated overnight in 96-well plates. The next day, medium was replaced with serum-free maintenance medium for 4 hours, and test compounds added. Forty-eight hours later, wells were washed twice with […] PBS, aspirating between washes. Cells were fixed by adding […] methanol for 30 min. Methanol was aspirated and wells washed twice with […] PBS. Next, […] blocking solution (PBS+1% BSA) was added for 1 hr at room temperature. Blocking solution was aspirated and […] primary antibody solution added (β-myosin heavy chain hybridoma supernatant+1% BSA) for 1 hr at room temperature. Primary antibody solution was removed and wells washed three times with […] PBS+1% BSA. Wash was aspirated and […] secondary antibody solution added (1:500 dilution of goat […] HRP conjugate in PBS+1% BSA; Southern Biotech #4050-05) for 1 hr at room temperature. Secondary antibody solution was removed and wells washed three times with […] PBS. Wash was aspirated and […] luminol solution added (Pierce #34080). Plates were read in a 96-well luminometer (Packard Fusion).
# [2] = system: neonatal rat ventricular myocytes (NRVM); experiment: Cell volume measurement (Coulter counter) of NRVM; format: cell-based; conditions: NRVM stimulated with compound alone
# Procedure: as §1, with “solution.” for “solution. After 24 hours in culture, myocyte preparations were transferred to serum-free maintenance medium (DMEM supplemented with 0.1% (v/v) Nutridoma (Roche), L-glutamine and penicillin/streptomycin). Where indicated, NRVM were treated with test compounds for a period of 48 h.”
# Hypertrophy and toxicity assays. Primary hypertrophy endpoints for NRVM included quantitation of: ANF secretion, total cellular protein and cell volume. ANF in media supernatants was quantitated by competitive ELISA using a monoclonal anti-ANF antibody (Biodesign) and a biotinylated ANF peptide (Phoenix Peptide). Total cellular protein was quantitated by standard Coomassie dye-binding assay; cells were lysed in protein assay reagent (BioRad) and absorbance at A595 was measured after 1 hour. […] After recovery by centrifugation, cell pellets were washed in PBS, resuspended in 10 ml IsoFlow electrolyte solution (Beckman-Coulter) and analyzed with a Z2 Coulter Particle Counter and Size Analyzer (Beckman-Coulter). Cytotoxicity was quantitated by measuring release of adenylate kinase (AK) from cultured NRVM into culture medium (ToxiLight kit, Cambrex).
# 5-HT1 = experiment: Radioligand receptor binding assay
# Procedure: (§2) Receptor binding assays. Receptor binding assays were performed by MDS Pharma services. Assays included: Adenosine A1 (cat# 200510), Adenosine A2A (cat# 200610), Adenosine A3 (cat# 200720), Adrenergic alpha 1 (cat# 203500), Imidazoline 12 central (cat# 241000), Imidazoline I2 peripheral (cat# 241100), Inositol triphosphate (cat# 242500), Phorbol Ester (cat# 264500), 5-HT 2B (cat# 271700), and 5-HT 4 (cat# 272000).
# (§3) • Summary of radioligand binding assays for 11 receptors. Data represent % inhibition of ligand binding in the presence of 10 μM 18264 (n=2).
# (§4) • Summary of radioligand binding assays for three receptors. Data represent % inhibition of ligand binding in the presence of 10 μM 20068 (n=2).
# 5-HT2B = biological target: T2, 5-HT2B (Homo sapiens, UniProt P41595); experiment: Radioligand receptor binding assay (MDS Pharma); conditions: 10 μM compound, n=2
# T2 construct: purchased MDS Pharma services 271700
# Procedure: as §2, §3, §4
# [3] = system: MCIP1 exon 4 promoter luciferase reporter; experiment: High throughput MCIP1-luciferase reporter screen in H9c2 muscle cells; format: cell-based, rat; conditions: screen of 20,000 compounds
# Text: A high throughput screen for small molecules that enhance MCIP1 expression in cardiac myocytes. The inventors set out to perform a high throughput screen of a combinatorial small molecule library for compounds capable of increasing MCIP1 expression in cultured H9c2 muscle cells. Toward that end, the inventors used a luciferase reporter gene controlled by the region upstream of exon 4 of the human MCIP1 gene (−874 to +30). This genomic region contains 15 NFAT binding sites and confers calcineurin responsiveness to MCIP1. Transcripts initiated from exon 4 encode a MCIP1 protein with a Mr=28 kD.
# T2 sequence (P41595 whole entry): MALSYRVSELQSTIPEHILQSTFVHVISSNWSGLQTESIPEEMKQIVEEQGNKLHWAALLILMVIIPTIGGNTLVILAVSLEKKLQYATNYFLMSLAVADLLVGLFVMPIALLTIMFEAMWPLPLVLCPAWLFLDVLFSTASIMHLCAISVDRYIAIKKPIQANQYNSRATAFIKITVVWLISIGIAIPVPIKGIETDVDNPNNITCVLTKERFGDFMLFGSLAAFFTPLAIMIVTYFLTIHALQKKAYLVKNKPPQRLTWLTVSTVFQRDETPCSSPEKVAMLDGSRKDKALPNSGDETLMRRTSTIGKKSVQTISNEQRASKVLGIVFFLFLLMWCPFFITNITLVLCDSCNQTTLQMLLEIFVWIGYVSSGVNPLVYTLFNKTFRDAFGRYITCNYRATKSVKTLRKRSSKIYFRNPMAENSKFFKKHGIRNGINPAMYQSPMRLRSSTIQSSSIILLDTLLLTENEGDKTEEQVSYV
compound,measurement,setting,value
"Cc1c(-c2ccccc2)nc2sc3c(c2c1N)CCCC3 [Compound 18264, 3-Methyl-2-phenyl-5,6,7,8-tetrahydro-benzo[4,5]thieno[2,3-b]pyridin-4-ylamine]","induction of myocyte hypertrophy (enlargement, sarcomere assembly)",[1],extraordinarily potent inducer of myocyte hypertrophy
same,inhibition at 10 µM,5-HT2C,42%
same,expression of fetal beta isoform of myosin heavy chain,beta myosin heavy chain,significantly up-regulated
same,cell volume,[2],increased
same,% Inhibition of Binding,"5-HT1; 10 μM compound, n=2",−25%
same,binding (in words),"5-HT1; radioligand binding, 10 μM",No significant binding
same,inhibition at 10 µM,5-HT2B,97%
same,stimulation of MCIP1-luciferase expression,[3],approximately two-fold
